Assay results: patent US12187723B2 (BRISTOL-MYERS SQUIBB COMPANY, priority 2019, dated 2025)

What was measured:
[1] = target: T1, human TLR7 (Homo sapiens, UniProt Q9NYK1); test: TLR7 inhibition reporter assay (HEK-Blue SEAP); type: cell-based; settings: HEK-Blue cells overexpressing human TLR7, gardiquimod 7.5 μM, 22 hour incubation
T1 construct: host or cells: HEK-Blue cells
T1 sequence (Q9NYK1 27-1049): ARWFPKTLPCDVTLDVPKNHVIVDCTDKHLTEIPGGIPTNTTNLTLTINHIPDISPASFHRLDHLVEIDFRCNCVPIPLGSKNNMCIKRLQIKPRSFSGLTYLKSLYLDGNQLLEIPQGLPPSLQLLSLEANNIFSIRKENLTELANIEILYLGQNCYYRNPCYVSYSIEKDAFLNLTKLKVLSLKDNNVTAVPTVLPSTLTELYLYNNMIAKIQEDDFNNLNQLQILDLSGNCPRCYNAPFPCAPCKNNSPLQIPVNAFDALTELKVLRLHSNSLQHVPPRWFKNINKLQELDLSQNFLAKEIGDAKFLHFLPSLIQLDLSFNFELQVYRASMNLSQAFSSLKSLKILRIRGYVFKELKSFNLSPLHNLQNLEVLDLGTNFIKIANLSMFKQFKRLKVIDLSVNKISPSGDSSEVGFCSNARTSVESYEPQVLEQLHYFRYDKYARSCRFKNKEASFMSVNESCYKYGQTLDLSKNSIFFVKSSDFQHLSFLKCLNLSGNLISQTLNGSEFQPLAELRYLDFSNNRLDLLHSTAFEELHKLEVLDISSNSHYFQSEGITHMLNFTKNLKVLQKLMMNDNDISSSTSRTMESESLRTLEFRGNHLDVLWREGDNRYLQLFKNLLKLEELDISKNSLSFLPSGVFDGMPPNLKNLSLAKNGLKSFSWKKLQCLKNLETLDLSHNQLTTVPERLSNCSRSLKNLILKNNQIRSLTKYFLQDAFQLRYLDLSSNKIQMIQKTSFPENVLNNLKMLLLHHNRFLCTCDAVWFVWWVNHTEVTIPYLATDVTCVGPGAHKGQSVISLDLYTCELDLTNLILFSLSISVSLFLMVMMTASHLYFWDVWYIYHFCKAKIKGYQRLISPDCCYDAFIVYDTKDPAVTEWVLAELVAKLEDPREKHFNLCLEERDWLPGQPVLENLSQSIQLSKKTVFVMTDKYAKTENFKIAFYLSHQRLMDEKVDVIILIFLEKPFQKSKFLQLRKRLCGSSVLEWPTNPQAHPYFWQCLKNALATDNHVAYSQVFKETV
In short: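 SEAP readout via HEK-Blue Detection medium after 22 h at 37 °C, 5% CO2 defines inhibition, normalized between agonist-plus-DMSO wells and a reference inhibitor. Compound dose range 0.05 nM–50 μM; TLR7 cells at 15,000/well (gardiquimod), TLR8 at 20,000/well (R848).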

[2] = target: T2, human TLR8 (Homo sapiens, UniProt Q9NR97); test: TLR8 inhibition reporter assay (HEK-Blue SEAP); type: cell-based; settings: HEK-Blue cells overexpressing human TLR8, R848 15.9 μM, 22 hour incubation
T2 construct: host or cells: HEK-Blue cells
T2 sequence (Q9NR97 27-1041): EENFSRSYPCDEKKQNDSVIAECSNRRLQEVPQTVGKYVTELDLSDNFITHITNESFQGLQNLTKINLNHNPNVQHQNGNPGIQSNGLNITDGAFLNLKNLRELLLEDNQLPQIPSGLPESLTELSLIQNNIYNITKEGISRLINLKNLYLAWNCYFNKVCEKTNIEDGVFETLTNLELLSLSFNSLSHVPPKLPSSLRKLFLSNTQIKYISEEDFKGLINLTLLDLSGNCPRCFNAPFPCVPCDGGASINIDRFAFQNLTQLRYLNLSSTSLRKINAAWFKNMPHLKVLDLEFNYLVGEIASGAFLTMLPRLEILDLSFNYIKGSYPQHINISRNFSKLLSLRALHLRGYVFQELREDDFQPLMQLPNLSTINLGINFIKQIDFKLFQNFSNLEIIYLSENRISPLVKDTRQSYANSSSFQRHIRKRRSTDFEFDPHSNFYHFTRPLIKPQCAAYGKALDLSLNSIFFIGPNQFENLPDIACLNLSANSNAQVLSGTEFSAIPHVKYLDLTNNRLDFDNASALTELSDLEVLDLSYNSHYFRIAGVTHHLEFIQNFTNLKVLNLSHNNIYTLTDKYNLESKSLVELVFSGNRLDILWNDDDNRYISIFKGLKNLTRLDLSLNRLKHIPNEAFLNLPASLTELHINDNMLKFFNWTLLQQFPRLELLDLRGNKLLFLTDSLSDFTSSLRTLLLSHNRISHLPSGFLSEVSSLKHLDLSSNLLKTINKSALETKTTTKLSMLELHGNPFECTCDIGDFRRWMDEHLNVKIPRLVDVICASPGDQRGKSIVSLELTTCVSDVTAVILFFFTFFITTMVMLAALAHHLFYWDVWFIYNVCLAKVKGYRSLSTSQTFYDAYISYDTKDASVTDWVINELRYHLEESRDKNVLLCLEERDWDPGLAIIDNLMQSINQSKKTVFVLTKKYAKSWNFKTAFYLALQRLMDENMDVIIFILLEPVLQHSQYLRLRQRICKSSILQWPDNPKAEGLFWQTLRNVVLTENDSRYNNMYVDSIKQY
In short: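 HEK-Blue cells overexpressing human TLR7, TLR8 or TLR9 carry a SEAP reporter driven by NF-κB/AP-1 sites. Compounds (0.05 nM–50 μM) were preincubated 30 min at room temperature, then cells were stimulated with gardiquimod 7.5 μM (TLR7), R848 15.9 μM (TLR8) or ODN2006 5 nM (TLR9) for 22 h at 37 °C.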

CCc1cc2c(cc1-c1cc(OC)c3ncnn3c1)[nH]c(=O)n2[C@@H]1CCCN(CCC(C)(C)C)C1 [Example 208, (R)-1-(1-(3,3-dimethylbutyl)piperidin-3-yl)-6-ethyl-5-(8-methoxy-[1,2,4]triazolo[1,5-a]pyridin-6-yl)-1,3-dihydro-2H-benzo[d]imidazol-2-one] was tested, and the IC50 [1] was 6.52 nM and the IC50 [2] was 3.77 nM.
In the case of COCCN1CCC[C@H](n2c(=O)[nH]c3cc(-c4cc(OC)c5ncnn5c4)c(C(C)C)cc32)C1 [Example 221, (S)-6-isopropyl-5-(8-methoxy-[1,2,4]triazolo[1,5-a]pyridin-6-yl)-1-(1-(2-methoxyethyl)piperidin-3-yl)-1,3-dihydro-2H-benzo[d]imidazol-2-one], the IC50 [1] is reported as 11.3 nM and the IC50 [2] is reported as 5.67 nM.
COc1c(C)c(-c2cc3[nH]c(=O)n(C4CCC(N5CCC(F)(F)CC5)CC4)c3cc2C(C)C)cn2ncnc12 (single isomer, unassigned) [Example 229, 1-(4-(4,4-difluoropiperidin-1-yl)cyclohexyl)-6-isopropyl-5-(8-methoxy-7-methyl-[1,2,4]triazolo[1,5-a]pyridin-6-yl)-1,3-dihydro-2H-benzo[d]imidazol-2-one] was tested, and the IC50 [1] was 7.31 nM and the IC50 [2] was 2.18 nM.
CCc1cc2c(cc1-c1cc(OC)c3ncnn3c1)[nH]c(=O)n2[C@@H]1CCCN(CC)C1 [Example 171, (R)-6-ethyl-1-(1-ethylpiperidin-3-yl)-5-(8-methoxy-[1,2,4]triazolo[1,5-a]pyridin-6-yl)-1,3-dihydro-2H-benzo[d]imidazol-2-one] showed an IC50 [1] of 4.56 nM and an IC50 [2] of 3.03 nM.
CCc1cc2c(cc1-c1cc(OC)c3ncnn3c1)[nH]c(=O)n2[C@@H]1CCCN(CC(C)C)C1 [Example 177, (R)-6-ethyl-1-(1-isobutylpiperidin-3-yl)-5-(8-methoxy-[1,2,4]triazolo[1,5-a]pyridin-6-yl)-1,3-dihydro-2H-benzo[d]imidazol-2-one] showed an IC50 [1] of 1.07 nM and an IC50 [2] of 4.34 nM.
CCc1cc2c(cc1-c1cc(OC)c3ncnn3c1)[nH]c(=O)n2[C@@H]1CCCN(C2COC2)C1 [Example 173, (R)-6-ethyl-5-(8-methoxy-[1,2,4]triazolo[1,5-a]pyridin-6-yl)-1-(1-(oxetan-3-yl)piperidin-3-yl)-1,3-dihydro-2H-benzo[d]imidazol-2-one] was tested, and the IC50 [1] was 32 nM and the IC50 [2] was 18 nM.
With COc1c(C)c(-c2cc3[nH]c(=O)n(C4CCC(N5CCC(F)(F)CC5)CC4)c3cc2C(C)C)cn2ncnc12 (single isomer, unassigned) [Example 230, 1-(4-(4,4-difluoropiperidin-1-yl)cyclohexyl)-6-isopropyl-5-(8-methoxy-7-methyl-[1,2,4]triazolo[1,5-a]pyridin-6-yl)-1,3-dihydro-2H-benzo[d]imidazol-2-one] the IC50 [1] was 60.3 nM and the IC50 [2] was 5.49 nM.
COc1cc(-c2cc3[nH]c(=O)n(C4CCC(N5CCC6(CC5)COC6)CC4)c3cc2C(C)C)cn2ncnc12 (centres unmarked) [Example 239, 1-(4-(2-oxa-7-azaspiro[3.5]nonan-7-yl)cyclohexyl)-6-isopropyl-5-(8-methoxy-[1,2,4]triazolo[1,5-a]pyridin-6-yl)-1,3-dihydro-2H-benzo[d]imidazol-2-one] gave an IC50 [1] of 1.69 nM and an IC50 [2] of 0.21 nM.
With CCc1cc2c(cc1-c1cc(OC)c3ncnn3c1)[nH]c(=O)n2[C@@H]1CCCN(CCC(F)(F)F)C1 [Example 183, (R)-6-ethyl-5-(8-methoxy-[1,2,4]triazolo[1,5-a]pyridin-6-yl)-1-(1-(3,3,3-trifluoropropyl)piperidin-3-yl)-1,3-dihydro-2H-benzo[d]imidazol-2-one] the IC50 [1] was 12.2 nM and the IC50 [2] was 6.44 nM.
CCc1cc2c(cc1-c1cc(OC)c3ncnn3c1)[nH]c(=O)n2[C@H]1CC[C@@H](N(CC)CC)CC1 [Example 169, 1-((1s,4s)-4-(diethylamino)cyclohexyl)-6-ethyl-5-(8-methoxy-[1,2,4]triazolo[1,5-a]pyridin-6-yl)-1,3-dihydro-2H-benzo[d]imidazol-2-one] showed an IC50 [1] of 1.84 nM and an IC50 [2] of 0.74 nM.
COc1cc(-c2cc3[nH]c(=O)n(C4CCC(N5CCNC(=O)C5)CC4)c3cc2C(C)C)cn2ncnc12 (centres unmarked) [Example 243, 6-isopropyl-5-(8-methoxy-[1,2,4]triazolo[1,5-a]pyridin-6-yl)-1-(4-(3-oxopiperazin-1-yl)cyclohexyl)-1,3-dihydro-2H-benzo[d]imidazol-2-one] gave an IC50 [1] of 119 nM and an IC50 [2] of 81.5 nM.
In the case of COc1cc(-c2cc3[nH]c(=O)n(C4CCC(N5CC(OC)C5)CC4)c3cc2C(C)C)cn2ncnc12 (centres unmarked) [Example 237, 6-isopropyl-5-(8-methoxy-[1,2,4]triazolo[1,5-a]pyridin-6-yl)-1-(4-(3-methoxyazetidin-1-yl)cyclohexyl)-1,3-dihydro-2H-benzo[d]imidazol-2-one], the IC50 [1] is reported as 1.31 nM and the IC50 [2] is reported as 0.33 nM.
Compound CCCN[C@H]1CC[C@@H](n2c(=O)[nH]c3cc(-c4cc(OC)c5ncnn5c4)c(C(C)C)cc32)CC1 [Example 195, 6-isopropyl-5-(8-methoxy-[1,2,4]triazolo[1,5-a]pyridin-6-yl)-1-((1 s,4s)-4-(propylamino)cyclohexyl)-1,3-dihydro-2H-benzo[d]imidazol-2-one] has an IC50 [1] of 1.39 nM and an IC50 [2] of 0.27 nM.
Compound COc1cc(-c2cc3[nH]c(=O)n(C4CCC(N5CCCC5)CC4)c3cc2C(C)C)cn2ncnc12 (centres unmarked) [Example 231, 6-isopropyl-5-(8-methoxy-[1,2,4]triazolo[1,5-a]pyridin-6-yl)-1-(4-(pyrrolidin-1-yl)cyclohexyl)-1,3-dihydro-2H-benzo[d]imidazol-2-one] has an IC50 [1] of 1.68 nM and an IC50 [2] of 0.81 nM.
Work on CCc1cc2c(cc1-c1cc(OC)c3ncnn3c1)[nH]c(=O)n2[C@@H]1CCCN(CC2CC2)C1 [Example 182, (R)-1-(1-(cyclopropylmethyl)piperidin-3-yl)-6-ethyl-5-(8-methoxy-[1,2,4]triazolo[1,5-a]pyridin-6-yl)-1,3-dihydro-2H-benzo[d]imidazol-2-one] yielded an IC50 [1] of 1.93 nM and an IC50 [2] of 2.31 nM.
Compound COc1cc(-c2cc3[nH]c(=O)n([C@H]4CC[C@H](NC(C)C)CC4)c3cc2C(C)C)cn2ncnc12 [Example 203, 6-isopropyl-1-((1r,4s)-4-(isopropylamino)cyclohexyl)-5-(8-methoxy-[1,2,4]triazolo[1,5-a]pyridin-6-yl)-1,3-dihydro-2H-benzo[d]imidazol-2-one] has an IC50 [1] of 4.72 nM and an IC50 [2] of 1.34 nM.
